Experimental data taken from patent US9457044B2, “Methods and compositions for wound healing” (CoDa Therapeutics, Inc., priority 2006, dated 2016).

Experiments:
[1] = tested on: IGF-7; test: Growth factor/cytokine antibody array of chimera: IGF-7; type: cell-based, human; conditions: after two weeks in culture
Procedure: Cell denuded pig stroma chimeras were cultured for two weeks and then assessed using a growth factor/cytokine antibody array (measures protein levels of 120 different growth factors/cytokines.
After two weeks in culture the chimeras were cut in half: one half for histological analysis, and the other for growth factor and cytokine array analysis. For growth factor and cytokine analysis the central stromal region (with fully recovered human cell epithelium) and partially repopulated stroma (human keratocytes) was removed and homogenised separately from the human limbal rim which contains stem cell populations. The homogenates were run on a growth factor/cytokine array (FIG. 15) and analysis of growth factor levels performed using densitometry analysis of the array membranes.

[2] = tested on: Cx43 protein; test: Cx43 protein knockdown in confluent fibroblast cultures; type: cell-based; conditions: within two hours
Procedure: Swiss 3T3 fibroblasts were grown in Dulbecco's modified Eagle's medium (DMEM; Gibco) supplemented with 10% fetal calf serum (Labtech) and 1% penicillinstreptomycin solution (Sigma, Poole) in a 5% CO2 incubator at 37° C. Unless otherwise stated, the cells were maintained in this medium for most experiments. The cells were passaged by trypsinization and used at passages 6-10 at a confluency of Z 90%. Cells were plated on 13 mm glass coverslips in 24-well dishes (Nunc) with 4−5×10^5 cells per well containing 1 ml of medium. Cells reached confluency after 72 hours and were then used for experimentation.
In order to knock down Cx43 expression in the fibroblasts the media was replaced with serum-free DMEM containing either 20 μM asODNs or 20 μM control sODNs. This was incubated for two hours before being replaced with serum containing DMEM. The wounding assay was then carried out as above.

[3] = tested on: F4/80-positive macrophages; test: Macrophage recruitment into wound site (F4/80 immunohistochemistry); type: in vivo, mice
Procedure: Male, 8 week old, ICR mice were used in the following experiments. All the mice were kept under specific pathogen-free conditions in an environmentally controlled clean room at University College London and all the experiments were carried out under UK Home Office regulations. Mice were anaesthetized by halothane inhalation. Four full-thickness excisional wounds of 6 mm diameter were made on the shaved back on either side of the dorsal midline with a 6 mm biopsy punch (Kai Industries). To each pair of wounds a single topical application of 50 μl of 1 μM Cx43 as ODN (SEQ. ID No. 2) (Sigma-Genosys) in 30% Pluronic F-127 gel (Sigma-Aldrich), chilled on ice, was made to one wound, and an identical application of 1 μM sense control sODNs was made to the other. […] R. and Becker, D. L. (2003). Targeting connexin 43 expression accelerates the rate of wound repair. Curr Biol 13, 1697-703). Each wound region was digitally photographed at the indicated time intervals, and the areas of the wounds were calculated. All wound areas were expressed as percentages of the initial wound areas. […]
A treatment-blinded observer counted MPO-positive neutrophils and F4/80-positive macrophages in the wound bed (defined as the area surrounded by unwounded skin, fascia, regenerated epidermis, and eschar) in 3 random high-power fields of 0.332 mm^2. […]

[4] = tested on: skin wounds; test: Full-thickness excisional skin wound healing (wound area, re-epithelialization); type: in vivo, mice
Procedure: Male, 8 week old, ICR mice were used in the following experiments. All the mice were kept under specific pathogen-free conditions in an environmentally controlled clean room at University College London and all the experiments were carried out under UK Home Office regulations. Mice were anaesthetized by halothane inhalation. Four full-thickness excisional wounds of 6 mm diameter were made on the shaved back on either side of the dorsal midline with a 6 mm biopsy punch (Kai Industries). To each pair of wounds a single topical application of 50 μl of 1 μM Cx43 as ODN (SEQ. ID No. 2) (Sigma-Genosys) in 30% Pluronic F-127 gel (Sigma-Aldrich), chilled on ice, was made to one wound, and an identical application of 1 μM sense control sODNs was made to the other. […] Targeting connexin 43 expression accelerates the rate of wound repair. Curr Biol 13, 1697-703). Each wound region was digitally photographed at the indicated time intervals, and the areas of the wounds were calculated. All wound areas were expressed as percentages of the initial wound areas. In some series of experiments, wounds and their surrounding area, including the scab and epithelial margins, were harvested with an 8 mm biopsy punch (Kai Industries) at the indicated time intervals after mice were killed with an overdose of chloroform. A minimum of eight mice were used for each time point examined.

[5] = tested on: TGF-β1; test: Immunostaining for TGF-β1 at wound sites; type: in vivo, mice; conditions: 2 days
Procedure: Male, 8 week old, ICR mice were used in the following experiments. All the mice were kept under specific pathogen-free conditions in an environmentally controlled clean room at University College London and all the experiments were carried out under UK Home Office regulations. Mice were anaesthetized by halothane inhalation. Four full-thickness excisional wounds of 6 mm diameter were made on the shaved back on either side of the dorsal midline with a 6 mm biopsy punch (Kai Industries). To each pair of wounds a single topical application of 50 μl of 1 μM Cx43 as ODN (SEQ. ID No. 2) (Sigma-Genosys) in 30% Pluronic F-127 gel (Sigma-Aldrich), chilled on ice, was made to one wound, and an identical application of 1 μM sense control sODNs was made to the other. […] R. and Becker, D. L. (2003). Targeting connexin 43 expression accelerates the rate of wound repair. Curr Biol 13, 1697-703). Each wound region was digitally photographed at the indicated time intervals, and the areas of the wounds were calculated. All wound areas were expressed as percentages of the initial wound areas. In some series of experiments, wounds and their surrounding area, including the scab and epithelial margins, were harvested with an 8 mm biopsy punch (Kai Industries) at the indicated time intervals after mice were killed with an overdose of chloroform. A minimum of eight mice were used for each time point examined. […]

## GTAATTGCGGCAGGAGGAATTGTTTCTGTC (antisense GTAATTGCGGCAGGAGGAATTGTTTCTGTC; in Pluronic F-127 gel, further chemistry not given here) [Cx43 asODN]
[1]
  level of IGF-7 in chimeric stroma compared with untreated controls: very high levels
[2]
  knockdown of Cx43 protein: 95%
[3]; day 2
  reduction of number of macrophages versus control sODN-treated wounds: 33%
[3]; day 7
  reduction of number of macrophages versus control sODN-treated wounds: 32%
[4]; days 1 and 2
  macroscopic wound appearance and closure versus control wounds: significantly smaller, drier, less inflamed and closed faster
[4]; excisional and incisional wounds
  re-epithelialisation versus control ODN treated wounds: re-epithelialise more rapidly
[5]
  TGF-β1 positive elongated fibroblast-like cells at the dermal margins of the wound: an additional TGF-β1 positive cell type could be seen in large numbers
  TGF-β1 staining in the epidermis versus control wound epidermis: much more strongly
